Reference: patent US8088366B2, “Attractant for Indian meal moth larve” (The United States of America, as represented by the …, priority 2009, dated 2012)

Columns and labels:
[1] = test system: Plodia interpunctella larvae (0.6 mg penultimate instar to mid-last instar); experiment: Bioassay chamber choice test of larval attraction, older larvae (early penultimate, newly molted last and mid-last instar); format: in vivo
Source text: (§1) To isolate the attractant, the inventors bioassayed multiple materials that potentially comprised effective attractants. The bioassay chamber 10 was comprised of a Lincoln Wear-Ever (Fort Wayne, Ind.) baking pan (No. 9002) having the dimensions of 65 cm long, 45 cm wide and 2.5 cm high. A similarly sized Carb-x plastic top 12 (Rubbermaid Commercial Products Inc., Winchester, Va.) was modified for this application. (Note that FIG. 1 is a (top) plan view so that only the Carb-x plastic top 12 of the bioassay chamber is shown.)
The rows of three holes were ˜8 cm from the outer edge at the ends and ˜10 cm from the outer edge on the two sides, which spaced the three holes ˜12.5 cm apart, center to center. A 3.0 cm diameter hole 16 was drilled in the center of the top 12 to accept a bulkhead fitting 18 (# 16422, United States Plastic Corp., Lima, Ohio) complete with a right angle connection and a serrated vacuum hose 20. During the bioassay process, air was drawn into the chamber 10 through the six air inlet holes 14 and removed from the chamber 10 through the fitting 18 and vacuum hose 20 in the direction of the arrow 22.
Before each bioassay, the chambers 10 were washed with a dilute solution of Micro-90 detergent (International Products Corp, Burlington, N.J.), rinsed 3 times with tap water, 1 time with distilled water, 1 time with MeOH and air dried. Test samples were placed in flat polypropylene weigh boats. An individual sample was positioned at each end of the chamber 10 under the middle air inlets.
The six air inlet holes 14 were fitted with syringe ports (Part # MTL230-6, Value Plastics, Inc., Fort Collins, Colo.) and six 10 cc syringes 24 filled with activated charcoal were affixed. Low-density foam weather strip (6.3 mm thick×12.7 mm wide, not shown in FIG. 1) was attached along the four edges of the top 12 to form an airtight seal when placed on the bottom pan and tightened together with four Sparco Binder Clips, # 87010 (2″ wide, 1″ capacity) 26. A vacuum means (not shown) was attached to the vacuum hose 20 was adjusted to give an exit flow of ˜53 cc/min or one chamber volume (˜2.41) exchange every 45 min during the bioassay.
In addition to neonates, three other age groups of larvae were selected from the standardized cultures for bioassay to determine if they were attracted to the wheat grain and its components. These groups included newly molted penultimate instar (0.6±0.1 mg), newly molted last instar (3.2±0.2 mg) and mid-last instar (7.8±0.8 mg) (see Silhacek and Miller, 1972). In these assays, 10 larvae of the specified age, stage and weight range were transferred to the 16 mm sample cup at the beginning of the scotophase and immediately placed at the release point in the equilibrated bioassay chamber. The cover was secured to the chamber bottom and the larvae were given three hours to select the sample of choice and then the larvae on each sample were counted.
In the first set of tests, the relative attractiveness of the three major, commercially available kernel tissue fractions of wheat were assessed. The tissues were crude bran (Flint River Mills, Bainbridge, Ga.), Kretschmer's toasted wheat germ (Quaker Oats Co., Chicago, Ill.) and endosperm (organically grown, unbleached, unenriched all-purpose flour, Wards Super Market, Gainesville, Fla.).
The attractiveness of whole kernel wheat volatiles was examined by suspending a packet of whole wheat in the air stream entering the bioassay chamber over a sample of NASE. […]

[2] = test system: Plodia interpunctella neonatal larvae; experiment: Bioassay chamber choice test of larval attraction, neonatal larvae; format: in vivo; settings: serially diluted, bioassayed over the range of 16 pg to 500 pg on 3MM pad; FIGS. 7 and 8
Source text: as §1
The rows of three holes were ˜8 cm from the outer edge at the ends and ˜10 cm from the outer edge on the two sides, which spaced the three holes ˜12.5 cm apart, center to center. […]
Plodia larvae used in this study were reared on a standardized Plodia diet (Silhacek and Miller, 1972) at 30° C., 70% r.h. and a 16L:8D photoperiod as described previously (Silhacek et al, 2003) using eggs collected over a 1 h interval during the 2 h period preceding the scotophase. […] The samples were then removed, mixed with Plodia diet and the larvae counted after two days of additional growth.
In the first set of tests, the relative attractiveness of the three major, commercially available kernel tissue fractions of wheat were assessed. […]

| Structure (SMILES) | attraction of older larvae at 31 pg ([1]; 31 pg on 3MM scintillation pad, three older age groups) | attraction of older larvae at 250-500 pg ([1]; 250-500 pg, some larvae captured in non-attractive NASE sample) | attraction of all larval stages when bioassayed ([1]; all larval stages of Plodia) | amount range of peak attraction of older larvae ([1]; three older age groups, amount on 3MM pad) [pg] | larval attraction by stage of development ([1]; through the middle (7.0-8.5 mg) of the final larval instar) | attractancy to neonates [2] |
| --- | --- | --- | --- | --- | --- | --- |
| CCCCCc1ccco1 [2-pentyl furan] | Moderate but not significant attraction | Strong attraction | attracted to picogram quantities | 62.5 to 125 | strong | attractive at all levels tested between 32 and 500 pg |
| CCCCCC=O [Hexanal, reference compound] |  |  |  |  |  | not attractive |
